Reference: article PMC9416150, “Development and Validation of [^3H]OF-NB1 for Preclinical Assessment of GluN1/2B Candidate Drugs” (Pharmaceuticals, 2022)
Where two headings read alike, the source gives them in different places.

Experiments:
GluN1/2B [1] = settings: cited from earlier work
σ1R [2] = settings: cited from earlier work
σ2R = target: σ2R; set-up: method as in earlier work; settings: ref 18 (Hashimoto 2015); cited from earlier work
[3] = set-up: method as in PMID 35710735; settings: n = 4; cited from earlier work
GluN1/2B [4] = target: T1, GluN1/2B (Rattus norvegicus, UniProt P35439+Q00960); assay: In vitro GluN1/2B competitive binding assay with [3H]OF-NB1; settings: radioligand [3H]OF-NB1; Wistar rat brain homogenates; 25 °C
T1 construct: from tissue; host or cells: Wistar rat whole brain homogenate
T1 sequence (Q00960 27-1482, other chains not shown): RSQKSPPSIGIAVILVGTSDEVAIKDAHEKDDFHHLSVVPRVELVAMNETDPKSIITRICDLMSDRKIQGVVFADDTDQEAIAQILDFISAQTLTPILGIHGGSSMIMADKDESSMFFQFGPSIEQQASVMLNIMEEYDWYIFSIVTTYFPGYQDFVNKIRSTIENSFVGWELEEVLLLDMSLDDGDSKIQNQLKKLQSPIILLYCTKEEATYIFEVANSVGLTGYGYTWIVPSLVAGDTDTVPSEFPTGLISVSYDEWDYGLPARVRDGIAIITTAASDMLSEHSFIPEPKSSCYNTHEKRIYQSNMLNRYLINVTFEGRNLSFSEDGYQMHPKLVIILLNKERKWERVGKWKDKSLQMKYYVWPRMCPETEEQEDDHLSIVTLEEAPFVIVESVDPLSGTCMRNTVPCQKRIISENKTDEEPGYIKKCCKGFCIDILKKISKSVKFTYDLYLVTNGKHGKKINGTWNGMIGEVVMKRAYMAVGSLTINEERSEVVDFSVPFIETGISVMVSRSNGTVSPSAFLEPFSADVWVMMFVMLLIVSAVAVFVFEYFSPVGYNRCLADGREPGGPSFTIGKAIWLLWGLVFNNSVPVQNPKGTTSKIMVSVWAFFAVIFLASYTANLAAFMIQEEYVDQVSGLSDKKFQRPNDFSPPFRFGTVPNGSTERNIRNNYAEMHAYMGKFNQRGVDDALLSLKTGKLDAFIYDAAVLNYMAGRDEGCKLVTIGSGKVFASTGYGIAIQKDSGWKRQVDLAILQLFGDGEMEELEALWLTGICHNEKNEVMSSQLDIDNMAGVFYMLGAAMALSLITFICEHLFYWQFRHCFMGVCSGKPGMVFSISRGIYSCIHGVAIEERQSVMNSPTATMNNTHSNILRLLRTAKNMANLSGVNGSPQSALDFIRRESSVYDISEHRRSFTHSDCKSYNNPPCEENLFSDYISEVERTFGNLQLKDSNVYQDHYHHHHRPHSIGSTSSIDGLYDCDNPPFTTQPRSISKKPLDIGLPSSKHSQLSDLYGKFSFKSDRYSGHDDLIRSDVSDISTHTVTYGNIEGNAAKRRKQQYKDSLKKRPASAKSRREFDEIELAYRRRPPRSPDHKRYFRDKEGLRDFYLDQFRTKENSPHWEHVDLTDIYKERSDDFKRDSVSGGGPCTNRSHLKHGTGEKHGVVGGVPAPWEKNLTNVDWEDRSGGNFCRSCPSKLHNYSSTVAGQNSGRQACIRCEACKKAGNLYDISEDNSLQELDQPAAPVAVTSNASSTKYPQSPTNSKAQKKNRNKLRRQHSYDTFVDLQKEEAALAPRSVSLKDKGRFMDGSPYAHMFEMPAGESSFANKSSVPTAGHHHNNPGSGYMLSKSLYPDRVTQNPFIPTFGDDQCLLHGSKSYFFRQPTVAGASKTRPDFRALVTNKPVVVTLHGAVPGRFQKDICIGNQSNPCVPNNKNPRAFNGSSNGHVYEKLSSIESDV
Protocol: (§1) Competitive binding assays were performed as previously reported. […] A dilution series of the test ligands was prepared ranging from 30 µM to 300 pM. […] Each measurement vial contained 0.5 mg/mL of brain homogenate proteins, 20 µL of cold ligand, 10 µL of radioligand and was diluted to 200 µL with HEPES buffer. The vials were incubated at 25 °C and 110 rpm for 1 h. The mixtures were quenched with buffer and filtered through Whatman® GF/C 25 mm filters soaked with 0.05% PEI solution. Filters were washed twice with cold buffer and placed in scintillation vials. Scintillation vials were filled with 2 mL Ultima Gold^TM LSC cocktail and measured in a Beckmann LS6500 liquid scintillator counter.

GluN1/2B [5] = target: T1, GluN1/2B; assay: In vitro GluN1/2B competitive binding assay with [3H]ifenprodil; settings: radioligand [3H]ifenprodil; Wistar rat brain homogenates; 25 °C
Protocol: as §1

σ1R [6] = target: T2, σ1R (Rattus norvegicus, UniProt Q9R0C9); settings: Wistar rats; for %RO calculated / %RO predicted: σ1R occupancy, [18F]fluspidine
T2 sequence (Q9R0C9 whole entry): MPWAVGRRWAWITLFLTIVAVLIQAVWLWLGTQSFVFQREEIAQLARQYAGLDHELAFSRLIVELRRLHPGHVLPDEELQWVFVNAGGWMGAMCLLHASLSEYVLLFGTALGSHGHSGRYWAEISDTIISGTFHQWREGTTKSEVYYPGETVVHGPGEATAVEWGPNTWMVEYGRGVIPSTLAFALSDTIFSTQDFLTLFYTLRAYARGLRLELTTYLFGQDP
Protocol: A series of doses were investigated, ranging from 0.05–15 mg/kg. […] There have been efforts to develop ligands with dual GluN1/2B and σ1R activity. Nonetheless, for the purpose of developing selective GluN1/2B ligands, one has to consider fundamentally reformulating the development strategy.
All non-aqueous reactions were performed under N2 atmosphere using flame-dried glassware and standard syringe/septa methods unless stated otherwise. Reactions were magnetically stirred and further monitored by thin layer chromatography (TLC) performed on Merck TLC aluminum sheets (silica gel 60 F254). TLC spots were visualized using UV light (λ = 254 nm) or through staining with KMnO4 solution. Chromatographic purification of products was performed using SiliaFlash P60 silica gel (Silicycle) for preparative column chromatography with a particle size of 40–63 μm (230–400 mesh). Reactions at −78 °C were cooled in a dry ice/acetone bath and reactions at 0 °C were cooled in an ice/water bath. Chemicals were purchased from ABCR, Acros Organics, Amatek Chemical, Fluorochem, Merck, Perkin Elmer and Sigma Aldrich and used without further purification. Solvents for TLC, extraction and flash column chromatography were of technical grade. Extra dry solvents for all non-aqueous reactions were supplied by Acros Organics (puriss., dried over molecular sieves, water content <0.005%). Deuterated solvents (D, 99.9%) were purchased from Cambridge Isotope Laboratories, Inc. NMR spectra of compounds 3, 7 and 8 are presented in the Supplementary Material (Section S1). Tritium labeling was performed by RC Tritec AG (Teufen, Switzerland). […] Positron emission tomography (PET) imaging was performed in Wistar rats according to a previously published procedure.
Standard uptake values (SUVs) are averaged from 0–90 min.

σR = settings: read-out: Ki (σ1R); published value using the σR ligand [3H]3-PPP; cited from earlier work
GluN1/2B [7] = settings: cited from earlier work; remark: listed apart in the source
σ1R [8] = target: T2, σ1R; assay: In vitro σ1R competitive binding assay with (+)-[3H]pentazocine; set-up: from tissue; host or cells: brain of living Wistar rats (in vivo PET); settings: radioligand (+)-[3H]pentazocine; Wistar rat brain homogenates; 37 °C
Text: The mixtures were quenched with buffer and filtered through Whatman® GF/C 25 mm filters soaked with 0.05% PEI solution.

For CC(C(O)c1ccc(O)cc1)N1CCC(Cc2ccccc2)CC1 (stereo not shown) [[^3H]Ifenprodil], the Ki (GluN1/2B [1]; ref 17 (Alarcon et al. 2008)) is listed as 11 nM, the Ki (σ1R [2]; ref 18 (Hashimoto 2015)) is listed as 13 nM and the Ki (σ2R) is listed as 1.89 nM.

In the case of Oc1ccc2c(c1)CCN(CCCCc1ccccc1F)CC2O (stereo not shown) [OF-NB1], the Ki (GluN1/2B [1]; ref 22 (Ahmed et al. 2021)) is listed as 10.4 ± 4.7 nM, the Ki (σ1R [2]; ref 22 (Ahmed et al. 2021)) is listed as 410 nM and the “log D7.4” value [3] is listed as 2.05 ± 0.08.

COc1ccc(CCN2CCN(CCCc3ccccc3)CC2)cc1OC [SA-4503] showed a Ki (GluN1/2B [4]) of over 100000 nM and a Ki (GluN1/2B [5]) of 51 ± 13 nM.

For C[C@@H]([C@@H](O)c1ccc(O)cc1)N1CCC(O)(c2ccccc2)CC1 [CP-101,606], the “D50 (σ1R)” value (σ1R [6]; administered dose occupying 50% of σ1Rs, [18F]fluspidine PET) was 4.9 µmol/kg, the “blockade of [18F]fluspidine brain uptake” value (σ1R [6]; doses 0.05–15 mg/kg) was “dose-dependent blockade” and the “%RO calculated” value (σ1R [6]; dose 0.05 mg/kg) was 3.72%. The “%RO predicted” value (σ1R [6]; dose 0.05 mg/kg) was 2.43%, the “%RO calculated” value (σ1R [6]; dose 3 mg/kg) was 61.9% and the “%RO predicted” value (σ1R [6]; dose 3 mg/kg) was 59.2%. The “%RO calculated” value (σ1R [6]; dose 7 mg/kg) was 71.2%, the “%RO predicted” value (σ1R [6]; dose 7 mg/kg) was 77.1% and the “%RO calculated” value (σ1R [6]; dose 15 mg/kg) was 91.2%. The “%RO predicted” value (σ1R [6]; dose 15 mg/kg) was 87.8%, the Ki (GluN1/2B [1]; reported literature value) was 16 nM and the Ki (σR) was 60 nM. For the same compound, the “D50 (GluN1/2B)” value (GluN1/2B [7]) was 8.1 µmol/kg and the Ki (σ1R [8]) was 94 ± 6 nM.
